# System: CD22-fc
# Assay: Analysis of CD22 ligand on surfaces of NK-92 cells (CD22-fc binding, flow cytometry and confocal)
# Format: cell-based
# Settings: NK-92 cells incubated with the sialic acid derivative; FIGS. 7A and 7B
# Method: Culturing ATCC (American Type Culture Collection)-derived NK-92 (ATCC® CRL2407™) cells (also known as NK-92 cell lines) on a fourth alpha-MEM growth medium (comprising 12.5% (v/v) newborn bovine serum, 12.5% (v/v) horse serum, 100 U/ml recombinant IL-2) in an incubator with 5% (v/v) CO2 atmosphere at 37° C., then replacing the fourth alpha-MEM growth medium with a fifth alpha-MEM growth medium (comprising 2 mMPB-sia), continuing to culture for 48 hours, and washing for three times to obtain MPB-sia modified NK-92 cells, which is referred to as MsNK-92 cells.
# Washing MPB-sia or BPC-sia modified NK-92 cells with PBS buffer for three times, adding 100 μL, PBS, adding 1 μg CD22-fc to obtain a first mixture, then culturing the first mixture on ice for 30 minutes, washing three times with PBS buffer, then adding anti-CD22-PE to obtain a second mixture, culturing the second mixture on ice for 30 minutes, washing three times, then collecting cells, quantifying the extent of CD22 binding by flow cytometry analysis, and imaging by confocal microscopy.
# Increasing the concentration of MPB-sia enhanced the levels of CD22 ligand expression on cell surfaces reaching a maximum at 4 mM of MPB-sia at 24 hours (FIG. 8A). […] Next, the persistence of CD22 ligands on engineered NK-92 cells was analyzed. […]
structure (smiles),measurement,value
"CC(=O)N[C@H]1[C@H]([C@H](O)[C@H](O)CO)OC(O)(C(=O)O)C[C@@H]1O (stereo partly shown) [sialic acid (sia), sialic acid (N-acetylneuraminic acid)]",CD22 binding to NK-92 cells (flow cytometry),little binding with CD22 over the background

# — US11033562B2, “Carbohydrate derivatives used for surface modification of immune cells, use thereof and method thereof” (Xiamen Nuokangde Biological Technology Co., Ltd., priority 2018, dated 2021)
